From patent publication US9126973B2, “Multiheteroaryl compounds as inhibitors of H-PGDS and their use for treating prostaglandin D2 mediated diseases” (Cayman Chemical Company, Incorporated, priority 2008, dated 2015)

Columns and labels:
H-PGDS = H-PGDS (Homo sapiens (Human), UniProt O60760); experiment: H-PGDS Fluorescence Polarization Binding Assay (FPBA); settings: H-PGDS-MBP fusion enzyme, fluorescent probe, reduced glutathione 5 mM, 60-90 minutes at room temperature, 96-well format
Method: H-PGDS Fluorescence Polarization Binding Assay This assay essentially is available from Cayman Chemical Company as Catalog item #600007. The test data reported for the aforementioned Examples (H-PGDS FPBA IC50) were generated using a 96-well, instead of the 384-well, format. […] Assays were performed in 96-well microtiter plates in 100 μL of total sample volume. Excitation and emission wavelengths appropriate for the employed detection analyte were used. […] Twelve clean microfuge tubes were labeled A1 through A12. […] Dimethyl sulfoxide (50 μL) was added to each of tubes A1 through A11. The HQL-79 control solution was serially diluted by removing 50 μL from tube A12 and placing it in tube A11 with subsequent thorough mixing of the contents of tube A11. Next, 50 μL was removed from tube A11 and was placed into tube A10 with subsequent thorough mixing of the contents of tube A10. This process was repeated for tubes A9 through A2. […] A test compound may be dissolved in DMSO, ethanol, or methanol at several concentrations when the titration endpoint is unknown. […] Assay cocktail (95 μL) was added to each plate well. DMSO (5 μL) from microfuge tube A1 was added to each plate well A1 and B1. Positive control solution (5 μL) from microfuge tube A2 was added to each plate well A2 and B2. Positive control solution (5 μL) from microfuge tube A3 was added to each plate well A3 and B3. This procedure was continued until all the positive control standard dilutions were aliquoted. Test compound solutions (5 μL) were added to the wells. […] The IC50 for a particular test compound was obtained by performing a full concentration titration versus a full concentration titration of positive control. Comparison of a single concentration of a test compound to the maximum binding well provided an assessment of the relative affinity of the test compound for H-PGDS-MBP. The plate was covered and incubated for 60-90 minutes at room temperature. The FP signal is stable for at least two hours. […] The measurements were taken in the fluorescent polarization mode with the z-height set to the middle of the well and the G-factor set to 1.13 on a Tecan Safire 2 reader.

Sequence of H-PGDS (O60760 whole entry, the tested form may be a part): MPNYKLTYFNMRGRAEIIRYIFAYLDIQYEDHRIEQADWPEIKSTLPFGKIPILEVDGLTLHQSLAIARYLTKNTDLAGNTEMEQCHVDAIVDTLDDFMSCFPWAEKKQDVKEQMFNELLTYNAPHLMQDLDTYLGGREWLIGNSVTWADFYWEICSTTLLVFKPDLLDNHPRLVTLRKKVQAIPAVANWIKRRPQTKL

| SMILES | melting point [°C] | IC50 (H-PGDS) [nM] |
| --- | --- | --- |
| CC(C)(C)OC(=O)N1CCCC(c2ncc(-c3cnc(-c4ccccc4)nc3)[nH]2)C1 (racemic) [Example 21, (±)-tert-butyl 3-(5-(2-phenylpyrimidin-5-yl)-1H-imidazol-2-yl)piperidine-1-carboxylate] | 130 | 200 |
| c1ccc(-c2ncc(-c3cnc(C4CCCNC4)[nH]3)cn2)cc1 (racemic) [Example 22, (±)-2-phenyl-5-(2-(piperidin-3-yl)-1H-imidazol-5-yl)pyrimidine] | 140 | 1250 |
| c1ccc(CN2CCCC(c3ncc(-c4cnc(-c5ccccc5)nc4)[nH]3)C2)cc1 (racemic) [Example 23, (±)-5-(2-(1-benzylpiperidin-3-yl)-1H-imidazol-5-yl)-2-phenylpyrimidine] | 179 | 600 |
| CNC(=O)N1CCCC(c2nc(-c3cnc(-c4ccccc4)nc3)cn2C(=O)NC)C1 (racemic) [Example 25A, (±)-N-methyl-3-(1-(methylcarbamoyl)-4-(2-phenylpyrimidin-5-yl)-1H-imidazol-2-yl)piperidine-1-carboxamide] |  | 620 |
| CNC(=O)N1CCCC(c2ncc(-c3cnc(-c4ccccc4)nc3)[nH]2)C1 (racemic) [Example 25B, (±)-N-methyl-3-(5-(2-phenylpyrimidin-5-yl)-1H-imidazol-2-yl)piperidine-1-carboxamide] |  | 300 |
| O=C(N1CCCC(c2nc(-c3cnc(-c4ccccc4)nc3)c[nH]2)C1)C(F)(F)F (racemic) [Example 27, (±)-2,2,2-trifluoro-1-(3-(4-(2-phenylpyrimidin-5-yl)-1H-imidazol-2-yl)piperidin-1-yl)methanone] |  | 90 |
| CC(C)(C)OC(=O)N1CCC(c2ncc(-c3cnc(-c4ccccc4)nc3)[nH]2)C1 (racemic) [Example 28, (±)-tert-butyl 3-(5-(2-phenylpyrimidin-5-yl)-1H-imidazol-2-yl)pyrrolidine-1-carboxylate] | 219 |  |
| c1ccc(-c2ncc(-c3cnc(C4CCNC4)[nH]3)cn2)cc1 (racemic) [Example 30, (±)-2-phenyl-5-(2-(pyrrolidin-3-yl)-1H-imidazol-5-yl)pyrimidine] |  | 2000 |
| CC(=O)N1CCCC(c2nc(-c3cnc(-c4ccccc4)nc3)c[nH]2)C1 (stereo not drawn) [1-(3-(4-(2-phenylpyrimidin-5-yl)-1H-imidazol-2-yl)piperidin-1-yl)ethanone] |  | 90 |
| c1ccc(Cn2c(-c3cnc(-c4ccccc4)nc3)cnc2-c2ccccc2)cc1 [Example 1 (Step C), 5-(1-benzyl-2-phenyl-1H-imidazol-5-yl)-2-phenylpyrimidine] |  | 15000 |
| c1ccc(-c2ncc(-c3cnc[nH]3)cn2)cc1 [Example 5, 5-(1H-imidazol-5-yl)-2-phenylpyrimidine] | 216 | 5000 |
| COc1ccc(-c2ncc(-c3cnc(-c4ccccc4)[nH]3)cn2)cc1OC [Example 7, 2-(3,4-dimethoxyphenyl)-5-(2-phenyl-1H-imidazol-5-yl)pyrimidine] | 231 | 3500 |
| c1cncc(-c2ncc(-c3cnc(-c4cccnc4)[nH]3)cn2)c1 [Example 12, 2-(pyridin-3-yl)-5-(2-(pyridin-3-yl)-1H-imidazol-5-yl)pyrimidine] | 299 | 1300 |
| c1ccc(-c2ncc(-c3cnc(CCc4cccnc4)[nH]3)cn2)cc1 [Example 16, 2-phenyl-5-(2-(2-(pyridin-3-yl)ethyl)-1H-imidazol-5-yl)pyrimidine] | 113 | 300 |
| CC(C)(C)OC(=O)N1CCC(c2ncc(-c3cnc(-c4ccccc4)nc3)[nH]2)CC1 [Example 17, tert-butyl 4-(5-(2-phenylpyrimidin-5-yl)-1H-imidazol-2-yl)piperidine-1-carboxylate] |  | 150 |
| c1ccc(-c2ncc(-c3cnc(C4CCNCC4)[nH]3)cn2)cc1 [Example 18, 2-phenyl-5-(2-(piperidin-4-yl)-1H-imidazol-5-yl)pyrimidine] |  | 1000 |

| SMILES | melting point [°C] | IC50 (H-PGDS) [nM] |
| --- | --- | --- |
| OC(N1CCCC(c2ncc(-c3cnc(-c4ccccc4)nc3)[nH]2)C1)C(F)(F)F (stereo not drawn) [Example 24, 2,2,2-trifluoro-1-(3-(4-(2-phenylpyrimidin-5-yl)-1H-imidazol-2-yl)piperidin-1-yl)ethanol] |  | 10000 |
| c1ccc(-c2ncc(-c3cn(C(c4ccccc4)(c4ccccc4)c4ccccc4)cn3)cn2)cc1 [Example 34 (Step A), 2-phenyl-5-(1-trityl-1H-imidazol-4-yl)pyrimidine] |  | > 20000 |
| c1ccc(Cn2c(-c3ccccc3)cnc2-c2cnc(-c3ccccc3)nc2)cc1 [Example 44 (Step B), 5-(1-benzyl-5-phenyl-1H-imidazol-2-yl)-2-phenylpyrimidine] |  | 15000 |
| c1ccc(-c2cc(-c3cnc(-c4ccccc4)nc3)[nH]n2)cc1 [Example 45, 2-phenyl-5-(3-phenyl-1H-pyrazol-5-yl)pyrimidine] |  | 1500 |
| c1ccc(-c2ncc(-c3ncc(-c4ccccc4)o3)cn2)cc1 [Example 47, 5-phenyl-2-(2-phenylpyrimidin-5-yl)oxazole] |  | > 20000 |
| CC(C)(C)OC(=O)N1CCC(n2nnc(-c3cnc(-c4ccccc4)nc3)n2)CC1 [Example 52, tert-butyl 4-(5-(2-phenylpyrimidin-5-yl)-2H-tetrazol-2-yl)piperidine-1-carboxylate] | 178 to 180 |  |
| c1ccc(-c2ncc(-c3cc(-c4cccnc4)n[nH]3)cn2)cc1 [Example 53, 2-phenyl-5-(3-(pyridin-3-yl)-1H-pyrazol-5-yl)pyrimidine] |  | 1300 |
| O=C(O)c1cc(-c2cnc(Oc3ccccc3)nc2)[nH]n1 [Example 56, 5-(2-phenoxypyrimidin-5-yl)-1H-pyrazole-3-carboxylic acid] |  | 5000 |
| CC(C)(C)OC(=O)c1csc(-c2cnc(-c3ccccc3)nc2)n1 [Example 62, tert-butyl 2-(2-phenylpyrimidin-5-yl)thiazole-4-carboxylate] |  | 5900 |
| O=C(O)c1csc(-c2cnc(-c3ccccc3)nc2)n1 [Example 63, 2-(2-Phenylpyrimidin-5-yl)thiazole-4-carboxylic acid] |  | 1100 |
| O=C(NCCN1CCOCC1)c1csc(-c2cnc(-c3ccccc3)nc2)n1 [Example 65, N-(2-morpholinoethyl)-2-(2-phenylpyrimidin-5-yl)thiazole-4-carboxamide] |  | 2500 |
| Cc1ccc(-c2cnc(-c3cccnc3)n2Cc2ccccc2)cn1 [Example 66 (Step A), 5-(1-benzyl-2-(pyridin-3-yl)-1H-imidazol-5-yl)-2-methylpyridine] |  | > 10000 |
| Cc1ccc(-c2cnc(-c3cccnc3)[nH]2)cn1 [Example 66, 2-methyl-5-(2-(pyridin-3-yl)-1H-imidazol-5-yl)pyridine] |  | > 10000 |
| Cc1nc(-c2ccccc2)sc1-c1cnc(-c2cccnc2)n1Cc1ccccc1 [Example 71, 5-(1-benzyl-2-(pyridin-3-yl)-1H-imidazol-5-yl)-4-methyl-2-phenylthiazole] |  | > 20000 |
| Cn1nnc(-c2cnc(-c3ccccc3)nc2)n1 [Example 73A, 5-(2-methyl-2H-tetrazol-5-yl)-2-phenylpyrimidine] |  | 10000 |
| Cn1nnnc1-c1cnc(-c2ccccc2)nc1 [Example 73B, 5-(1-methyl-1H-tetrazol-5-yl)-2-phenylpyrimidine] |  | 20000 |
